Legend:
Ras farnesyl transferase [1] = target: T1, Ras farnesyl transferase (Rattus norvegicus, UniProt Q02293+Q04631); assay: In vivo (intracellular) Ras farnesylation inhibition in Rat2 cell line transformed with H-Ras fused with polybasic lysine domain of K-Ras; assay type: cell-based; conditions: Rat2 cells transformed with H-Ras/K-Ras polybasic domain fused protein; concentration inhibiting 50% of farnesyl binding; read-out: K-Ras CIC50
T1 construct: endogenous in cells; host or cells: Rat2 fibroblasts transformed with C-Harvey-Ras or with the H-Ras/K-Ras polybasic-domain fusion
Description: (§1) In the present experiment, Rat2 cell line which expresses C-Harvey-Ras protein having transforming activity and Rat2 cell line(Korean patent application No. 97-14409) which is transformed with fused protein of H-Ras substituted with polybasic lysine domain at C-terminus of K-Ras were used. The experiment was performed by the modified Declue's method(Declue. J. E. et al., Cancer Research, 51, 712, 1991) as follows.
(§2) 3×10^5 cells of transformed Rat2 fibroblast cell line were sprayed on 60 mm cell cultivation dish and cultivated for 48 hours in a cell incubator at 37° C. and after 50% or more of density was reached, it was treated with the test compounds. The compound according to the present invention dissolved in dimethylsulfoxide(DMSO) was used. 1% concentration of dimethylsulfoxide was used in both control and test groups. After 4 hours from the treatment with the compound, methionine labeled with 150 μCi of radioactive isotope [^35S] per 1 ml of medium was added and after cultivating for 20 hours, the cells were washed with physiological saline water. The cells were lysed using 1 ml of cold cell lysis buffer solution(50 mM of Sodium HEPES buffer solution containing 5 mM of magnesium chloride, 1 mM of DTT, 1% NP 40, 1 mM of EDTA, 1 mM of PMSF, 2 μM of leupeptin, 2 μM of pepstatin A and 2 μM of antipain) and the supernatant wherein the cells were lysed was obtained by high-velocity centrifugation of 12,000 g×5 minutes. The amount of radioisotope in the supernatant was measured and standardized to obtain a quantitative result in immunoprecipitation reaction and then, Y13-259, a monoclonal antiboby specifically binding to Ras protein(see: Furth, M. E. et al., J. Virol, 43, 294, 1982) was added and reacted for 15 hours at 4° C. Protein A(combined with goat anti-murine immunoglobulin antibody)-agarose suspension was added to the solution and reacted for 1 hour at 4° C. and then, to remove the unspecific binding product, immunoprecipitates were washed with a buffer solution (50 mM Tris chloride buffer solution containing 50 mM of sodium chloride, 0.5% of sodium dioxycholate, 0.5% of NP 40 and 0.1% of SDS). The precipitates were added to a buffer solution for electrophoresis and boiled and then, electrophoresis was performed using 13.5% of SDS polyacrylamide gel. After electrophoresis, the gel was fixed and dried. Then, the gel was exposed to X-ray film, developed and printed. From the result of the experiment, intensities of band of protein combined with or without farnesyl of Ras protein was measured, and the concentration of the test compound inhibiting 50% of farnesyl binding was defined as CIC50, an in vivo Ras farnesyl transferase inhibitory activity. IC50 means the data from Experimental 1 and CIC50 means the data from Experimental 2.

Ras farnesyl transferase [2] = target: T2, Ras farnesyl transferase (Homo sapiens, UniProt P49354+P49356); assay: Ras farnesyl transferase enzyme inhibition, K-Ras substrate (H-Ras fused with polybasic lysine domain of K-Ras); assay type: biochemical; conditions: K-Ras substrate (fused protein of H-Ras with polybasic lysine domain of K-Ras); recombinant farnesyl transferase
T2 construct: made in house
From the text: (§3) In the present experiment, the improved Pompliano's method (see: Pompliano et al., Biochemistry, 31, 3800, 1992) was applied. Specifically, Ras farnesyl transferase produced by genetic recombination techniques was used, and fused protein of H-Ras(H-Ras-CVLS) substituted with polybasic lysine domain at C-terminus of K-Ras (see: Korean Patent Appln. No. 97-14409) was used as a substrate after it had been purified according to the known method(see, Chung et al., Biochimica et Biophysica Acta, 1129, 278, 1992).
(§4) The enzyme reaction was performed in 50 μl of 50 mM Sodium HEPES buffer solution containing 25 mM of potassium chloride, 25 mM of magnesium chloride, 10 mM of DTT and 50 μM of zinc chloride. 1.5 μM of Ras substrate protein, 0.15 μM of tritium-farnesylpyrophosphate and 4.5 nM of farnesyl transferase were used. More specifically, in the initial step, farnesyl transferase was added to the above buffer solution, reaction was maintained for 30 minutes at 37° C. and then the reaction was stopped by adding 1 ml of ethanol solution containing 1M HCl. The formed precipitates were adsorbed to GF/B filter using Hopper harvestor(Hopper #FH 225V) for filter-binding, washed with ethanol, and then radioactivity of the dried filter was measured using LKB β counter. Enzyme titer was measured in the unsaturated state of substrate where the concentration of Ras substrate protein and farnesyl transferase have quantitative relationship. The compound according to the present invention dissolved in dimethyl sulfoxide(DMSO) was added to the reaction solution in an amount of less than 5% of the total reaction solution, and then the enzyme inhibitory activity thereof was measured. The enzyme inhibitory activity was represented by percentage of the amount of farnesyl incorporated into the Ras substrate protein in the presence of the test compound to that in the absence of the test compound. IC50 of the test compound was defined as the concentration at which 50% of the enzyme activity was inhibited. To evaluate the selective enzyme inhibitory activity of the compound according to the present invention, inhibitory activity on geranylgeranyl transferase was measured. Geranylgeranyl transferase was purified from bovine brain according to the modified Schaber's method(Schaber et al., J. Biol. Chem. 265, 14701, 1990), and substantially the same experimental procedure as that for farnesyl transferase was performed on geranylgeranyl pyrophosphate and Ras-CVIL substrate protein.

Ras farnesyl transferase [3] = target: T1, Ras farnesyl transferase; assay: In vivo (intracellular) Ras farnesylation inhibition in Rat2 cell line expressing C-Harvey-Ras; assay type: cell-based; conditions: Rat2 cells expressing C-Harvey-Ras; concentration inhibiting 50% of farnesyl binding; read-out: H-Ras CIC50
Description: as §1, §2

Ras farnesyl transferase [4] = target: T2, Ras farnesyl transferase; assay: Ras farnesyl transferase enzyme inhibition, H-Ras substrate; assay type: biochemical; conditions: H-Ras substrate protein; recombinant farnesyl transferase; 30 minutes at 37° C.
From the text: as §3, §4

IC50 (Ras farnesyl transferase [1]) [nM] | IC50 (Ras farnesyl transferase [2]) [nM] | IC50 (Ras farnesyl transferase [3]) [nM] | IC50 (Ras farnesyl transferase [4]) [nM] | Compound
< 10000 | < 2.1 | < 6.25 | < 3.2 | Cc1ncn(CCCOCc2ccccc2Cl)c1Cn1cc(C(=O)N2CCN(C)CC2)c(-c2cccc3ccccc23)c1 [Example 31, 1-{1-[3-(2-chlorobenzyloxy)propyl]-4-methyl-1H-imidazol-5-ylmethyl}-3-(4-methylpiperazin-1-yl)carbonyl-4-(naphthalen-1-yl)-1H-pyrrole]
> 10000 | < 15 | < 6.25 | < 6 | COCCN(C)C(=O)c1cn(Cc2c(C)ncn2CCCOCc2ccccc2Cl)cc1-c1cccc2ccccc12 [Example 32, 1-{1-[3-(2-chlorobenzyloxy)propyl]-4-methyl-1H-imidazol-5-ylmethyl}-3-[N-(2-methoxyethyl)-N-methyl]carbamoyl-4-(naphthalen-1-yl)-1H-pyrrole]
> 10000 | > 30 | > 30 | > 30 | Cc1ncc(Cn2cc(C(=O)N3CCN(C)CC3)c(-c3cccc4ccccc34)c2)n1CCCOCc1ccccc1 [Example 33, 1-[1-(3-benzyloxypropyl)-2-methyl-1H-imidazol-5-ylmethyl]-3-(4-methylpiperazin-1-yl)carbonyl-4-(naphthalen-1-yl)-1H-pyrrole]
> 10000 | < 5.9 | < 2.5 | < 2.5 | Cc1ncc(Cn2cc(C(=O)N3CCN(C)CC3)c(-c3cccc4ccccc34)c2)n1CCc1ccccc1 [Example 35, 1-[1-(phenethyl)-2-methyl-1H-imidazol-5-ylmethyl]-3-(4-methylpiperazin-1-yl)carbonyl-4-(naphthalen-1-yl)-1H-pyrrole]
> 20000 | < 15.5 | > 100 | < 5.5 | O=[N+]([O-])c1cn(Cc2cncn2Cc2ccc3c(c2)OCO3)cc1-c1cccc2ccccc12 [Example 36, 1-[1-(3,4-methylenedioxybenzyl)-1H-imidazol-5-ylmethyl]-4-(naphthalen-1-yl)-3-nitro-1H-pyrrole]
> 10000 | < 9.5 | > 25 | < 5.7 | O=[N+]([O-])c1cn(Cc2cncn2Cc2ccc(Cl)cc2)cc1-c1cccc2ccccc12 [Example 37, 1-[1-(4-chlorobenzyl)-1H-imidazol-5-ylmethyl]-4-(naphthalen-1-yl)-3-nitro-1H-pyrrole]
> 10000 | > 30 | > 25 | < 23 | O=[N+]([O-])c1cn(Cc2cncn2Cc2ccc(Br)cc2)cc1-c1cccc2ccccc12 [Example 38, 1-[1-(4-bromobenzyl)-1H-imidazol-5-ylmethyl]-4-(naphthalen-1-yl)-3-nitro-1H-pyrrole]
> 10000 | < 8.3 | < 25 | < 6 | O=[N+]([O-])c1cn(Cc2cncn2CCc2ccccc2)cc1-c1cccc2ccccc12 [Example 39, 1-[1-(phenethyl)-1H-imidazol-5-ylmethyl]-4-(naphthalen-1-yl)-3-nitro-1H-pyrrole]
> 10000 | > 30 | > 50 | < 24 | Cc1ccc(CCn2cncc2Cn2cc(-c3cccc4ccccc34)c([N+](=O)[O-])c2)cc1 [Example 40, 1-[1-(4-methylphenethyl)-1H-imidazol-5-ylmethyl]-4-(naphthalen-1-yl)-3-nitro-1H-pyrrole]
> 10000 | < 4 | > 50 | < 9 | O=[N+]([O-])c1cn(Cc2cncn2CCc2ccc(Cl)cc2)cc1-c1cccc2ccccc12 [Example 41, 1-[1-(4-chlorophenethyl)-1H-imidazol-5-ylmethyl]-4-(naphthalen-1-yl)-3-nitro-1H-pyrrole]
> 10000 | < 7.5 | > 50 | < 4.15 | O=[N+]([O-])c1cn(Cc2cncn2CCc2ccc(F)cc2)cc1-c1cccc2ccccc12 [Example 42, 1-[1-(4-fluorophenethyl)-1H-imidazol-5-ylmethyl]-4-(naphthalen-1-yl)-3-nitro-1H-pyrrole]
> 10000 | < 13 | > 50 | < 3 | O=[N+]([O-])c1cn(Cc2cncn2CCc2cccc(Br)c2)cc1-c1cccc2ccccc12 [Example 43, 1-[1-(3-bromophenethyl)-1H-imidazol-5-ylmethyl]-4-(naphthalen-1-yl)-3-nitro-1H-pyrrole]
> 10000 | < 15 | < 25 | < 11 | COc1ccc(CCn2cncc2Cn2cc(-c3cccc4ccccc34)c([N+](=O)[O-])c2)cc1 [Example 44, 1-[1-(4-methoxyphenethyl)-1H-imidazol-5-ylmethyl]-4-(naphthalen-1-yl)-3-nitro-1H-pyrrole]
> 10000 | < 16 | < 25 | < 16 | COc1cccc(CCn2cncc2Cn2cc(-c3cccc4ccccc34)c([N+](=O)[O-])c2)c1 [Example 45, 1-[1-(3-methoxyphenethyl)-1H-imidazol-5-ylmethyl]-4-(naphthalen-1-yl)-3-nitro-1H-pyrrole]
> 10000 | < 6 | > 50 | < 7 | O=[N+]([O-])c1cn(Cc2cncn2CCc2cccc3ccccc23)cc1-c1cccc2ccccc12 [Example 46, 1-[1-(naphthalen-1-ylethyl)-1H-imidazol-5-ylmethyl]-4-(naphthalen-1-yl)-3-nitro-1H-pyrrole]
> 10000 | < 29 | < 12.5 | < 15 | CCOCCCn1cncc1Cn1cc(-c2cccc3ccccc23)c([N+](=O)[O-])c1 [Example 47, 1-[1-(3-ethoxypropyl)-1H-imidazol-5-ylmethyl]-4-(naphthalen-1-yl)-3-nitro-1H-pyrrole]
> 10000 | > 30 | > 50 | > 30 | Cn1cncc1Cn1cc(-c2cccc3ccccc23)c([N+](=O)[O-])c1 [Example 48, 1-[1-(methyl)-1H-imidazol-5-ylmethyl]-4-(naphthalen-1-yl)-3-nitro-1H-pyrrole]

From patent US6511978B1, “Pyrrole derivatives useful for farnesyl transferase inhibitors and their preparations” (LG Life Sciences, Ltd., priority 1999, dated 2003)
